Consider 19 compounds from US20040034037A1, “Heteroaryl compounds useful as inhibitors of GSK-3” (priority 2002, published 2004).

The target of this assay is T1, GSK-3β (AA 1-420) (Homo sapiens, UniProt P49841).
T1 construct: GSK-3β (AA 1-420)
Put plainly: Ki determination for the inhibition of GSK-3 (standard coupled enzyme system). It is filed as biochemical. The note with it: 20 μM ATP, 300 μM peptide, 30° C. As to the method: Reactions were carried out in a solution containing 100 mM HEPES (pH 7.5), 10 mM MgCl2, 25 mM NaCl, 300 μM NADH, 1 mM DTT and 1.5% DMSO. Final substrate concentrations in the assay were 20 μM ATP (Sigma Chemicals, St Louis, Mo.) and 300 μM peptide (HSSPHQS(PO3H2)EDEEE, American Peptide, Sunnyvale, Calif.). Reactions were carried out at 30° C. and 20 nM GSK-30. Final concentrations of the components of the coupled enzyme system were 2.5 mM phosphoenolpyruvate, 300 μM NADH, 30 μg/ml pyruvate kinase and 10 μg/ml lactate dehydrogenase.
An assay stock buffer solution was prepared containing all of the reagents listed above with the exception of ATP and the test Compound of interest. The assay stock buffer solution (175 μl) was incubated in a 96 well plate with 5 μl of the test compound of interest at final concentrations spanning 0.002 μM to 30 μM at 30° C. for 10 minutes. […] The reaction was initiated by the addition of 20 μl of ATP (final concentration 20 μM). Rates of reaction were obtained using a Molecular Devices Spectramax plate reader (Sunnyvale, Calif.) over 10 minutes at 30° C. The Ki values were determined from the rate data as a function of inhibitor concentration.

T1 sequence (P49841 whole entry, the tested form may be a part): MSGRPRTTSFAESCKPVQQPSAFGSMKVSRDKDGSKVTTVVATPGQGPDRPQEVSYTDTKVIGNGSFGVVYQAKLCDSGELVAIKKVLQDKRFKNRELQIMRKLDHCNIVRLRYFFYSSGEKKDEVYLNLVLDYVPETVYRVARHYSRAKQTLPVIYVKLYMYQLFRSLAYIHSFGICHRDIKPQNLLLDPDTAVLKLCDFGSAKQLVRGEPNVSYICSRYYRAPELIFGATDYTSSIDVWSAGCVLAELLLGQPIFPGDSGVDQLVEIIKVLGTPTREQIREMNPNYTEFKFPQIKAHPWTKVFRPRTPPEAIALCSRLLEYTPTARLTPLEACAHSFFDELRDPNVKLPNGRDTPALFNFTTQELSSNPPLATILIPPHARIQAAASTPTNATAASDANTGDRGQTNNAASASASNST

As for `Nc1nonc1-c1nc2ccccc2n1CC(=O)Nc1ccc(F)c(F)c1` [Compound I-19, 2-[2-(4-Amino-furazan-3-yl)-benzoimidazol-1-yl]-N-(3,4-difluoro-phenyl)-acetamide], the Ki – broadly, the equilibrium dissociation constant of an inhibitor or competing ligand from its target – is less than 1 µM.
The value for `CC(C)Cn1c(-c2nc(Cl)cnc2N)nc2ccccc21` [Compound I-96] was less than 1 µM; that for `Nc1nonc1-c1nc2ccccc2n1-c1ccccc1` [Compound I-50, 1-Phenyl-2-[(4-amino)-1,2,5-oxadiazol-3-yl]benzimidazole] was less than 1 µM.
The same measure for `CC(C)n1c(-c2nonc2N)nc2ccccc21` [Compound I-11, 4-(1-Isopropyl-1H-benzoimidazol-2-yl)-furazan-3-ylamine]: less than 1 µM; for `CC(C)CCn1c(-c2nonc2N)nc2ccccc21` [Compound I-54, 1-(3-Methyl)butyl-2-[(4-amino)-1,2,5-oxadiazol-3-yl]benzimidazole]: less than 1 µM; for `CC(C#N)n1c(-c2nonc2N)nc2ccccc21` (racemic) [Compound I-51]: less than 1 µM.
`CC(C(N)=O)n1c(-c2nonc2N)nc2ccccc21` (stereo not shown) [Compound I-109] yielded a Ki of less than 1 µM.
In the case of `N#CCOc1cccc2c1nc(-c1nonc1N)n2CC#N` [Compound I-58, 1-Cyanomethyl-2-[(4-amino)-1,2,5-oxadiazol-3-yl]-4/7-cyanomethoxy benzimidazole], the inhibition constant (Ki) was less than 1 µM.
The same measure for `CCn1c(-c2nonc2N)nc2ccccc21` [Compound I-55, 4-(1-Ethyl-1H-benzoimidazol-2-yl)-furazan-3-ylamine]: less than 1 µM.
The same measure for `CCCn1c(-c2nonc2N)nc2ccccc21` [Compound I-7, 4-(1-Propyl-1H-benzoimidazol-2-yl)-furazan-3-ylamine]: less than 1 µM; for `C=CCn1c(-c2nonc2N)nc2ccccc21` [Compound I-9, 4-(1-Allyl-1H-benzoimidazol-2-yl)-furazan-3-ylamine]: less than 1 µM; for `CNc1nccnc1-c1nc2ccccc2n1CC#N` [Compound I-90, 3-(1-Cyanomethylbenzimidazol-2-yl)-pyrazin-2-yl methylamine]: less than 1 µM.
The value for `CC(C)Cn1c(-c2nonc2N)nc2cc(O)ccc21` [Compound I-129] was less than 1 µM; that for `COc1ccc2c(c1)nc(-c1nonc1N)n2CC#N` [Compound I-47, 1-Cyanomethyl-2-[(4-amino)-1,2,5-oxadiazol-3-yl]-5/6-methoxy benzimidazole] was less than 1 µM.
`Nc1cccnc1-c1nc2ccccc2[nH]1` [Compound I-87]: the inhibition constant (Ki) is less than 1 µM.
The value for `Nc1nonc1-c1nc2ccccc2n1CC1CC1` [Compound I-32, 1-Cyclopropylmethyl-2-[(4-amino)-1,2,5-oxadiazol-3-yl]benzimidazole] was less than 1 µM; that for `N#CCn1c(-c2nonc2N)nc2c([N+](=O)[O-])cccc21` [Compound I-56, 1-Cyanomethyl-2-[(4-amino)-1,2,5-oxadiazol-3-yl]-4-nitro benzimidazole] was less than 1 µM.
As to `Nc1nonc1-c1nc2ccccc2n1CC(F)(F)F` [Compound I-37, 1-(2,2,2-Trifluoro)ethyl-2-[(4-amino)-1,2,5-oxadiazol-3-yl]benzimidazole], the inhibitory constant (Ki) was less than 1 µM.
`N#CCn1c(-c2nonc2N)nc2ccccc21` [Compound I-13, [2-(4-Amino-furazan-3-yl)-benzoimidazol-1-yl]-acetonitrile] had a Ki of less than 1 µM.
